Values quoted from earlier work as cited in the PKSmart pharmacokinetics tables (Seal et al. 2025).

Test: Lombardo, Berellini, Obach 2018, Drug Metab Dispos 46:1466, doi 10.1124/dmd.118.082966
Conditions: human; for MRT / Vd / clearance / half-life: in vivo, iv; for fraction unbound: plasma

SMILES	MRT [h]	Vd [L/kg]	clearance [mL/min/kg]	half-life [h]	fraction unbound
CCn1cnc(C(=O)NC)c1C(=O)NC	1	0.73	12.1	0.83	0.92
CCCCC1=NC2(CCCC2)C(=O)N1Cc1ccc(-c2ccccc2-c2nnn[nH]2)cc1	6.8	0.94	2.3	14	0.1
C#CCC(Cc1cnc2nc(N)nc(N)c2n1)c1ccc(C(=O)NC(CCC(=O)O)C(=O)O)cc1 (stereo not given)	3.7	1.01	4.35	15	0.33
C=C[C@@H]1CNCC[C@@H]1CCCc1ccnc2ccc(OC)cc12	15.6	24.4	26	12.1	
CC(O)C(=O)Nc1c(I)c(C(=O)NC(CO)CO)c(I)c(C(=O)NC(CO)CO)c1I (stereo not given)	2.5	0.28	1.9	2.1	1
CN(C)CCCOc1nn(Cc2ccccc2)c2ccccc12	11.4	1.53	2.28	8.1	0.8
O=P(O)(O)C(Cl)(Cl)P(=O)(O)O	9.2	0.88	1.6	43.2	0.64
COC(C(=O)N1Cc2[nH]nc(NC(=O)c3ccc(N4CCN(C)CC4)cc3)c2C1)c1ccccc1 (stereo not given)	6.8	2.5	6.1	25	
Nc1nc(Cl)nc2c1ncn2[C@@H]1O[C@H](CO)[C@@H](O)[C@@H]1F	3.8	1.75	7.7	4	
COc1cc2c(cc1OC)CN(c1cc(N)c3cc(OC)c(OC)cc3n1)CC2	7.6	6.3	14	5.9	
CC1(C)O[C@@H]2C[C@H]3[C@@H]4CC=C5CC(=O)C=C[C@]5(C)[C@@]4(F)[C@@H](O)C[C@]3(C)[C@]2(C(=O)CO)O1	2.5	1.4	9.4	2.4	0.2
O=C(CCCN1CC=C(n2c(=O)[nH]c3ccccc32)CC1)c1ccc(F)cc1	2.73	1.41	8.92	1.9	
c1cc2c(c(N3CCNCC3)c1)OCCO2	10.5	3.6	8	8.2	
O=C(O[C@H]1C[N+]2(CCCOc3ccccc3)CCC1CC2)C(O)(c1cccs1)c1cccs1	1.76	4.3	48.5		
O[C@](CO[C@@H]1CN2CCC1CC2)(c1ccccc1)C1CCCC1	17.8	2.12	1.99	15.7	
O=C(O)CCCCON=C(c1cccnc1)c1cccc(C(F)(F)F)c1	6.8	0.43	1.05	7.54	0.033
CC(NC(CCc1ccccc1)C(=O)O)C(=O)N1CCCC1C(=O)O (stereo not given)	4	0.38	1.6	39	
CN(C)CCCN1c2ccccc2Sc2ccc(Cl)cc21	10	10	16	11	
N[C@@H]1CN(c2c(F)cc3c(=O)c(C(=O)O)cn([C@@H]4C[C@@H]4F)c3c2Cl)CC12CC2	6.7	1.5	3.7	6.6	
CN(C)CC/C=C1/c2ccccc2Sc2ccc(Cl)cc21	20.7	13.7	11.5	25.8	
COC(=O)c1ccc2c(C(=Nc3ccc(N(C)C(=O)CN4CCN(C)CC4)cc3)c3ccccc3)c(O)[nH]c2c1	12.6	15	19.9	9.5	0.02
CC(=O)NC[C@H]1CN(c2ccc(N3CCOCC3)c(F)c2)C(=O)O1	5.4	0.58	1.8	4.5	
CCCCCN(C)CCC(O)(P(=O)(O)O)P(=O)(O)O	5.1	0.55	1.8	14	0.15
CC1(C)[C@@H](O[C@H]2OC(C(=O)O)[C@@H](O)[C@H](O)[C@H]2O[C@@H]2OC(C(=O)O)[C@@H](O)[C@H](O)[C@H]2O)CC[C@]2(C)C3C(=O)C=C4C5C[C@@](C)(C(=O)O)CC[C@]5(C)CC[C@]4(C)[C@@]3(C)CC[C@@H]12 (stereo not given in full)	7.83	0.06	0.13	8.83	
